Laboratory results from patent publication US20250228865A1, “COMPOUNDS FOR ENHANCING READ THROUGH OF GENES CONTAINING PREMATURE TERMINATION CODONS AND METHODS FOR MAKING AND USING THE SAME” (Sanofi US Services Inc., priority 2022, published 2025).

Tests used:
[1] = tested on: recombinant human CFTR carrying the premature stop codon (PTC) mutation G542X; test: CFTR-PTC mutant translation readthrough, Nanoluc tagged CFTR luminescence (G542X cell line); type: cell-based; conditions: in combination with G418, G542X cell line; for CFTR G542X ACTIVITY Fold 10 μM G-418: fold over 10 μM G-418; for EC50: 16HBE cells
In short: (§1)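 Readthrough is the 48 h compound-induced luminescence increase scaled to that of maximal G418 (125-250 μM). Compounds run from 50 μM final in 2-fold steps, ±10 μM G418, on 16HBE lines carrying Nanoluc-tagged CFTR G542X (extracellular loop 4 tag) or R1162X (C-terminal tag), with 3 μM VX-809 present.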

[2] = tested on: recombinant human CFTR carrying the premature stop codon (PTC) mutation R1162X; test: CFTR-PTC mutant translation readthrough, Nanoluc tagged CFTR luminescence (R1162X cell line); type: cell-based; conditions: for CFTR R1162X ACTIVITY Fold 10 μM G-418: fold over 10 μM G-418, in combination with G418; for EC50: in combination with G418, 16HBE cells, read-out: CFTR R1162X ACTIVITY EC50
In short: as §1

Row | Structure (SMILES) | CFTR G542X ACTIVITY Fold 10 μM G-418 [1] | EC50 [1] [µM] | CFTR R1162X ACTIVITY Fold 10 μM G-418 [2] | EC50 [2] [µM]
1 | O=C1CN(c2ncc(OCc3c(Cl)cccc3C(F)(F)F)cn2)C[C@H](CO)N1 | A′ (A′ = ≥10X) | 1 to 10 | A′ (A′ = ≥10X) | 1 to 10
2 | OCc1ncn(-c2ncc(OCc3c(Cl)cccc3C(F)(F)F)cn2)n1 | A′ (A′ = ≥10X) | < 1 | A′ (A′ = ≥10X) | 1 to 10
3 | O=C1OC(CO)CN1c1ccc(OCc2c(Cl)cccc2Cl)cn1 (stereo not drawn) [3-[5-[(2,6-dichlorophenyl)methoxy]-2-pyridyl]-5-(hydroxymethyl)oxazolidin-2-one] | A′ (A′ = ≥10X) | 1 to 10 | A′ (A′ = ≥10X) | 1 to 10
4 | OCc1ccn(-c2ncc(OC(F)(F)c3c(Cl)cccc3Cl)cn2)n1 |  | > 10 |  | > 10
5 | CCc1cccc(C(F)(F)F)c1COc1ccc(N2CCOC(CO)C2)cc1 (stereo not drawn) [[4-[4-[[2-ethyl-6-(trifluoromethyl)phenyl]methoxy]phenyl]morpholin-2-yl]methanol] | A′ (A′ = ≥10X) | < 1 | A′ (A′ = ≥10X) | < 1
6 | NCc1cn(-c2ccc(OCc3c(Cl)cccc3Cl)cn2)nn1 [[1-[5-[(2,6-dichlorophenyl)methoxy]-2-pyridyl]triazol-4-yl]methanamine] | A′ (A′ = ≥10X) | 1 to 10 | A′ (A′ = ≥10X) | 1 to 10
7 | O=C1OCCN1c1ccc(OCc2c(Cl)cccc2Cl)cc1 [3-[4-[(2,6-dichlorophenyl)methoxy]phenyl]oxazolidin-2-one] | A′ (A′ = ≥10X) | 1 to 10 | B′ (B′ = ≥5X to <10X) | 1 to 10
8 | Cc1cccc(C(F)(F)F)c1COc1ccc(N2C(=O)NC(C)(C)C2=O)cc1 | A′ (A′ = ≥10X) | < 1 | A′ (A′ = ≥10X) | < 1
9 | O=C1OC(CO)CN1c1ccc(OCc2c(Cl)cccc2C2CC2)cc1 (stereo not drawn) | A′ (A′ = ≥10X) | 1 to 10 | A′ (A′ = ≥10X) | 1 to 10
10 | NC(=O)[C@H]1CCN(c2ncc(OCc3c(Cl)cccc3C(F)(F)F)cn2)C1 | A′ (A′ = ≥10X) | 1 to 10 | A′ (A′ = ≥10X) | 1 to 10
11 | OCc1cn(-c2ccc(OCc3c(Cl)cccc3Cl)cn2)cn1 [[1-[5-[(2,6-dichlorophenyl)methoxy]-2-pyridyl]imidazol-4-yl]methanol] | B′ (B′ = ≥5X to <10X) | 1 to 10 | A′ (A′ = ≥10X) | > 10
12 | Cc1cccc(C(F)(F)F)c1COc1cnc(-n2ncc(-c3ccccn3)n2)nc1 | A′ (A′ = ≥10X) | < 1 | A′ (A′ = ≥10X) | < 1
13 | O[C@@H]1CN(c2ncc(OCc3c(Cl)cccc3Cl)cn2)C[C@@H]1O [(3R,4S)-1-[5-[(2,6-dichlorophenyl)methoxy]pyrimidin-2-yl]pyrrolidine-3,4-diol] | A′ (A′ = ≥10X) | 1 to 10 | A′ (A′ = ≥10X) | > 10
14 | OCCC1(O)CCN(c2ncc(OCc3c(Cl)cccc3Cl)cn2)CC1 | A′ (A′ = ≥10X) | < 1 | A′ (A′ = ≥10X) | < 1
15 | NS(=O)(=O)N1CCN(c2ncc(OCc3c(Cl)cccc3Cl)cn2)CC1 [4-[5-[(2,6-dichlorophenyl)methoxy]pyrimidin-2-yl]piperazine-1-sulfonamide] | A′ (A′ = ≥10X) | 1 to 10 | A′ (A′ = ≥10X) | > 10
16 | O=C(O)C1CN(c2ncc(OCc3c(Cl)cccc3C(F)(F)F)cn2)CCO1 (stereo not drawn) [4-[5-[[2-chloro-6-(trifluoromethyl)phenyl]methoxy]pyrimidin-] | C′ (C′ = <5X) | 1 to 10 |  | < 1

Row | Structure (SMILES) | CFTR G542X ACTIVITY Fold 10 μM G-418 [1] | EC50 [1] [µM] | CFTR R1162X ACTIVITY Fold 10 μM G-418 [2] | EC50 [2] [µM]
17 | NC[C@H]1CN(c2ncc(OCc3c(Cl)cccc3Cl)cn2)CCO1 | A′ (A′ = ≥10X) | < 1 | A′ (A′ = ≥10X) | 1 to 10
18 | OCc1cn(-c2ccc(OCc3c(Cl)cccc3C(F)(F)F)cn2)cn1 | A′ (A′ = ≥10X) | < 1 | A′ (A′ = ≥10X) | 1 to 10
19 | CCCCN1CC(=O)N(c2ncc(OCc3c(Cl)cccc3Cl)cn2)C1=O [1-butyl-3-[5-[(2,6-dichlorophenyl)methoxy]pyrimidin-2-yl]imidazolidine-2,4-dione] |  | > 10 | C′ (C′ = <5X) | > 10
20 | O=C1O[C@@H](CO)CN1c1ccc(OCc2c(Cl)cccc2Cl)cc1 [(5R)-3-[4-[(2,6-dichlorophenyl)methoxy]phenyl]-5-(hydroxymethyl)oxazolidin-2-one] | A′ (A′ = ≥10X) | 1 to 10 | A′ (A′ = ≥10X) | 1 to 10
21 | CNC(=O)C1CCN(c2ncc(OCc3c(Cl)cccc3Cl)cn2)CC1 | A′ (A′ = ≥10X) | 1 to 10 | A′ (A′ = ≥10X) | 1 to 10
22 | COCC1CN(c2ccc(OCc3c(Cl)cccc3Cl)cc2)C(=O)N1 (stereo not drawn) [1-[4-[(2,6-dichlorophenyl)methoxy]phenyl]-4-(methoxymethyl)imidazolidin-2-one] | B′ (B′ = ≥5X to <10X) | 1 to 10 | B′ (B′ = ≥5X to <10X) | 1 to 10
23 | OCc1cn(-c2ncc(OCc3c(Cl)cccc3OC(F)F)cn2)cn1 | A′ (A′ = ≥10X) | 1 to 10 | B′ (B′ = ≥5X to <10X) | 1 to 10
24 | CC1CN(c2ncc(OCc3c(Cl)cccc3Cl)cn2)CCN1C(N)=O (stereo not drawn) | A′ (A′ = ≥10X) | < 1 | A′ (A′ = ≥10X) | < 1
25 | CN(CC1CNCCO1)c1ncc(OCc2c(Cl)cccc2Cl)cn1 (stereo not drawn) | C′ (C′ = <5X) | 1 to 10 | C′ (C′ = <5X) | 1 to 10
26 | O=C1CN(c2ccc(OCc3c(Cl)cccc3C(F)(F)F)cn2)C(=O)N1 | A′ (A′ = ≥10X) | < 1 | A′ (A′ = ≥10X) | < 1
27 | OCc1cnn(-c2ncc(OCc3c(Cl)cccc3Cl)cn2)n1 [[2-[5-[(2,6-dichlorophenyl)methoxy]pyrimidin-2-yl]triazol-4-yl]methanol] | A′ (A′ = ≥10X) | 1 to 10 | A′ (A′ = ≥10X) | 1 to 10
28 | FC(F)(F)c1cccc(Cl)c1COc1cnc(-n2cc(-c3ccccn3)nn2)nc1 | A′ (A′ = ≥10X) | < 1 | A′ (A′ = ≥10X) | < 1
29 | Clc1cccc(Cl)c1COc1cnc(-n2ncc(-c3ccccn3)n2)nc1 [5-[(2,6-dichlorophenyl)methoxy]-2-[4-(2-pyridyl)triazol-2-yl]pyrimidine] | A′ (A′ = ≥10X) | 1 to 10 | A′ (A′ = ≥10X) | 1 to 10
30 | Cc1cccc(C(F)(F)F)c1COc1cnc(N2C(=O)NC(C)(C)C2=O)nc1 | A′ (A′ = ≥10X) | 1 to 10 | A′ (A′ = ≥10X) | 1 to 10
31 | Cc1cccc(C(F)(F)F)c1COc1ccc(-n2cnc(CN)n2)cc1 | A′ (A′ = ≥10X) | < 1 | A′ (A′ = ≥10X) | 1 to 10
